Source: ChEMBL document CHEMBL4627350, “Drug repurposing and rediscovery: Design, synthesis and preliminary biological evaluation of 1-arylamino-3-aryloxypropan-2-ols as anti-melanoma agents” (Bioorg Med Chem, 2020)
Activity calls are given as the source filed them. The calls are words filed in the database; no cut-off is given here.

Key:
SK-MEL-5 [1] = test: Antiproliferative activity against human SK-MEL-5 cells assessed as cell growth inhibition incubated for 48 hrs by MTT assay; format: functional, cell-based; conditions: SK-MEL-5, 48 h
SK-MEL-28 [2] = test: Antiproliferative activity against human SK-MEL-28 cells assessed as cell growth inhibition incubated for 48 hrs by MTT assay; format: functional, cell-based; conditions: SK-MEL-28, 48 h
A-375 [3] = test: Antiproliferative activity against human A375 cells assessed as cell growth inhibition incubated for 48 hrs by MTT assay; format: functional, cell-based; conditions: A-375, 48 h
SK-MEL-5 [4] = test: Antiproliferative activity against human SK-MEL-5 cells assessed as cell growth inhibition at 100 uM incubated for 48 hrs by MTT assay relative to control; format: functional; conditions: SK-MEL-5, 48 h
SK-MEL-28 [5] = test: Antiproliferative activity against human SK-MEL-28 cells assessed as cell growth inhibition at 100 uM measured after 48 hrs by MTT assay relative to control; format: functional; conditions: SK-MEL-28, 48 h
A-375 [6] = test: Antiproliferative activity against human A375 cells assessed as cell growth inhibition at 100 uM measured after 48 hrs by MTT assay relative to control; format: functional; conditions: A-375, 48 h
SK-MEL-28 [7] = test: Cell cycle arrest in human SK-MEL-28 cells assessed as accumulation at G2/M phase at 5 nM after 24 hrs by […] dye staining based fluorescence assay; format: functional
SK-MEL-28 [8] = test: Inhibition of colony formation in human SK-MEL-28 cells at 5 to 100 uM supplemented with fresh medium containing compound every 72 hrs for 2 weeks by crystal violet staining based assay; format: functional, cell-based
SK-MEL-28 [9] = test: Antimigratory activity against human SK-MEL-28 cells assessed as reduction in cell migration at 1 uM measured after 48 hrs by wound healing assay; format: functional, cell-based
SK-MEL-5 [10] = test: Potency index, ratio of carvedilol IC50 to test compound IC50 for antiproliferative activity against human SK-MEL-5 cells; format: functional
SK-MEL-28 [11] = test: Potency index, ratio of carvedilol IC50 to test compound IC50 for antiproliferative activity against human SK-MEL-28 cells; format: functional
A-375 [12] = test: Potency index, ratio of carvedilol IC50 to test compound IC50 for antiproliferative activity against human A375 cells; format: functional
SK-MEL-28 [13] = test: Cell cycle arrest in human SK-MEL-28 cells assessed as accumulation at G2/M phase after 24 hrs by […] dye staining based fluorescence assay; format: functional
SK-MEL-28 [14] = test: Inhibition of colony formation in human SK-MEL-28 cells at 2 uM supplemented with fresh medium containing compound every 72 hrs for 2 weeks by crystal violet staining based assay; format: functional
SK-MEL-28 [15] = test: Induction of apoptosis in human SK-MEL-28 cells incubated for 24 hrs by Annexin V-FITC/propidium iodide staining based flow cytometric analysis; format: functional, cell-based
Tubulin (Homo sapiens) = Tubulin (Homo sapiens) (UniProt P68371+Q9H4B7+P0DPH7+P68366+Q13509+Q71U36+P04350+Q3ZCM7+P07437+P68363+Q9BQE3+Q6PEY2+Q13885+Q9BVA1+Q9BUF5); test: Inhibition of tubulin in human SK-MEL-28 cells assessed as disruption of microtubule network at 1 to 2 uM by Alexa Fluor 488 and DAPI staining based fluorescence microscopic method; format: cell-based

Cc1ccc2cccc(NCCCOc3cccc4[nH]c5ccccc5c34)c2n1
IC50 (SK-MEL-5 [1]): 16.4 µM | IC50 (SK-MEL-28 [2]): 19.8 µM | IC50 (A-375 [3]): 22.3 µM

CC(C)NCC(O)COc1ccc(CC(N)=O)cc1 (stereo unspecified) [ATENOLOL]
inhibition at 100 µM (SK-MEL-5 [4]): 5.2% | IC50 (SK-MEL-5 [1]): > 100 µM | IC50 (SK-MEL-28 [2]): > 100 µM | IC50 (A-375 [3]): > 100 µM | inhibition at 100 µM (SK-MEL-28 [5]): 6.9% | inhibition at 100 µM (A-375 [6]): 8.6%

COc1ccccc1N1CCN(CCCOc2cccc3[nH]c4ccccc4c23)CC1
IC50 (SK-MEL-5 [1]): 13.7 µM | IC50 (SK-MEL-28 [2]): 11.4 µM | IC50 (A-375 [3]): 10.8 µM

c1ccc(-c2ccc(CNCCCOc3cccc4[nH]c5ccccc5c34)cc2)cc1
IC50 (SK-MEL-5 [1]): 4.28 µM | IC50 (SK-MEL-28 [2]): 4.39 µM | IC50 (A-375 [3]): 6.59 µM

CC(C)NCC(O)c1ccc(NS(C)(=O)=O)cc1 (stereo unspecified) [SOTALOL]
inhibition at 100 µM (SK-MEL-5 [4]): 2.1% | IC50 (SK-MEL-5 [1]): > 100 µM | IC50 (SK-MEL-28 [2]): > 100 µM | IC50 (A-375 [3]): > 100 µM | inhibition at 100 µM (SK-MEL-28 [5]): 7.4% | inhibition at 100 µM (A-375 [6]): 15.2%

COc1cc2c(c(OC)c1OC)-c1ccc(OC)c(=O)cc1[C@@H](NC(C)=O)CC2
Activity (SK-MEL-28 [7]): Active

CC(C)NCC(O)COc1ccc(-c2ccccc2)cc1 (racemic)
IC50 (SK-MEL-5 [1]): 12 µM | IC50 (SK-MEL-28 [2]): 11.9 µM | IC50 (A-375 [3]): 11 µM

COC(=O)CCc1ccc(OCC(O)CNC(C)C)cc1 (stereo unspecified) [ESMOLOL]
inhibition at 100 µM (SK-MEL-5 [4]): 31.4% | IC50 (SK-MEL-5 [1]): > 100 µM | IC50 (SK-MEL-28 [2]): > 100 µM | IC50 (A-375 [3]): > 100 µM | inhibition at 100 µM (SK-MEL-28 [5]): 25.8% | inhibition at 100 µM (A-375 [6]): 22.8%

CC(C)(C)NC[C@H](O)COc1nsnc1N1CCOCC1 [TIMOLOL]
inhibition at 100 µM (SK-MEL-5 [4]): 33.3% | IC50 (SK-MEL-5 [1]): > 100 µM | IC50 (SK-MEL-28 [2]): > 100 µM | IC50 (A-375 [3]): > 100 µM | inhibition at 100 µM (SK-MEL-28 [5]): 18.6% | inhibition at 100 µM (A-375 [6]): 22.7%

CC(C)NCC(O)COc1cccc2ccccc12 (stereo unspecified)
inhibition (SK-MEL-28 [8]): Active

c1ccc(Nc2cccc(OCCCNCc3ccc(-c4ccccc4)cc3)c2)cc1
IC50 (SK-MEL-5 [1]): 4.72 µM | IC50 (SK-MEL-28 [2]): 3.8 µM | IC50 (A-375 [3]): 2.31 µM

CC(C)NCC(O)COc1ccc(COCCOC(C)C)cc1 (stereo unspecified) [BISOPROLOL]
inhibition at 100 µM (SK-MEL-5 [4]): 14.8% | IC50 (SK-MEL-5 [1]): > 100 µM | IC50 (SK-MEL-28 [2]): > 100 µM | IC50 (A-375 [3]): > 100 µM | inhibition at 100 µM (SK-MEL-28 [5]): 6.4% | inhibition at 100 µM (A-375 [6]): 28.3%

c1ccc(N2CCN(CCCOc3cccc4[nH]c5ccccc5c34)CC2)cc1
IC50 (SK-MEL-5 [1]): 36.9 µM | IC50 (SK-MEL-28 [2]): 19.2 µM | IC50 (A-375 [3]): 22.6 µM

OC(CNc1ccc(-c2ccccc2)cc1)COc1cccc2[nH]c3ccccc3c12 (racemic)
IC50 (SK-MEL-5 [1]): 13.9 µM | IC50 (SK-MEL-28 [2]): 12.5 µM | IC50 (A-375 [3]): 13.5 µM

COc1ccccc1OCCNCCCOc1cccc2[nH]c3ccccc3c12
IC50 (SK-MEL-5 [1]): 6.18 µM | IC50 (SK-MEL-28 [2]): 6.66 µM | IC50 (A-375 [3]): 6.88 µM

COCCc1ccc(OCC(O)CNC(C)C)cc1 (stereo unspecified) [METOPROLOL]
inhibition at 100 µM (SK-MEL-5 [4]): 38.8% | IC50 (SK-MEL-5 [1]): > 100 µM | IC50 (SK-MEL-28 [2]): > 100 µM | IC50 (A-375 [3]): > 100 µM | inhibition at 100 µM (SK-MEL-28 [5]): 30% | inhibition at 100 µM (A-375 [6]): 26.3%

OC(COc1cccc2[nH]c3ccccc3c12)CN1CCN(c2ccccn2)CC1 (racemic)
IC50 (SK-MEL-5 [1]): 26.1 µM | IC50 (SK-MEL-28 [2]): 24.7 µM | IC50 (A-375 [3]): 31.8 µM

Cc1ccc2cccc(NCC(O)COc3cccc4[nH]c5ccccc5c34)c2n1 (racemic)
IC50 (SK-MEL-5 [1]): 14.5 µM | IC50 (SK-MEL-28 [2]): 14.2 µM | IC50 (A-375 [3]): 14.1 µM

COc1ccccc1OCCNCC(O)COc1cccc2ccccc12 (racemic)
IC50 (SK-MEL-5 [1]): 10.1 µM | IC50 (SK-MEL-28 [2]): 13.5 µM | IC50 (A-375 [3]): 18.9 µM

OC(CNCc1ccc(-c2ccccc2)cc1)COc1cccc2[nH]c3ccccc3c12 (racemic)
IC50 (SK-MEL-5 [1]): 3.14 µM | IC50 (SK-MEL-28 [2]): 3.8 µM | IC50 (A-375 [3]): 5.56 µM | Activity (SK-MEL-28 [9]): Active | Ratio IC50 (SK-MEL-5 [10]): 15 | Ratio IC50 (SK-MEL-28 [11]): 15 | Ratio IC50 (A-375 [12]): 15

c1ccc(N2CCN(CCCOc3cccc4[nH]c5ccccc5c34)CC2)nc1
IC50 (SK-MEL-5 [1]): 11.5 µM | IC50 (SK-MEL-28 [2]): 15.5 µM | IC50 (A-375 [3]): 13.9 µM

COc1ccccc1OCCNCC(O)COc1ccc(-c2ccccc2)cc1 (racemic)
IC50 (SK-MEL-5 [1]): 5.86 µM | IC50 (SK-MEL-28 [2]): 6.01 µM | IC50 (A-375 [3]): 8.37 µM

COc1ccccc1OCCNCC(O)COc1ccc2ccccc2c1 (racemic)
IC50 (SK-MEL-5 [1]): 18.5 µM | IC50 (SK-MEL-28 [2]): 19.7 µM | IC50 (A-375 [3]): 21.1 µM

COc1ccccc1OCCNCC(O)COc1cccc2[nH]c3ccccc3c12 (stereo unspecified) [CARVEDILOL]
IC50 (SK-MEL-5 [1]): 13.7 µM | IC50 (SK-MEL-28 [2]): 15.6 µM | IC50 (A-375 [3]): 13 µM | inhibition (SK-MEL-28 [8]): Active

O[C@@H](CNCc1ccc(-c2ccccc2)cc1)COc1cccc2[nH]c3ccccc3c12
IC50 (SK-MEL-5 [1]): 2.69 µM | IC50 (SK-MEL-28 [2]): 4.99 µM | IC50 (A-375 [3]): 5.22 µM

OC(COc1cccc2[nH]c3ccccc3c12)CN1CCN(c2ccccc2)CC1 (racemic)
IC50 (SK-MEL-5 [1]): 17 µM | IC50 (SK-MEL-28 [2]): 18.5 µM | IC50 (A-375 [3]): 16.3 µM

CC(CCc1ccccc1)NCC(O)c1ccc(O)c(C(N)=O)c1 (stereo unspecified) [LABETALOL]
inhibition at 100 µM (SK-MEL-5 [4]): 36.2% | IC50 (SK-MEL-5 [1]): > 100 µM | IC50 (SK-MEL-28 [2]): > 100 µM | IC50 (A-375 [3]): > 100 µM | inhibition at 100 µM (SK-MEL-28 [5]): 35.6% | inhibition at 100 µM (A-375 [6]): 38.1%

OC(COc1ccc(-c2ccccc2)cc1)CN1CCN(c2ccccc2)CC1 (racemic)
IC50 (SK-MEL-5 [1]): 12.2 µM | IC50 (SK-MEL-28 [2]): 15.3 µM | IC50 (A-375 [3]): 14.3 µM

CC(C)NCC(O)COc1cccc2[nH]c3ccccc3c12 (stereo unspecified) [CARAZOLOL]
IC50 (SK-MEL-5 [1]): 33.7 µM | IC50 (SK-MEL-28 [2]): 31.3 µM | IC50 (A-375 [3]): 35.4 µM

COc1ccccc1OCCNC[C@H](O)COc1cccc2[nH]c3ccccc3c12
IC50 (SK-MEL-5 [1]): 7.04 µM | IC50 (SK-MEL-28 [2]): 10.5 µM | IC50 (A-375 [3]): 14.7 µM

OC(CNCc1ccc(-c2ccccc2)cc1)COc1cccc(Nc2ccccc2)c1 (racemic)
Activity (SK-MEL-28 [13]): Dose-dependent effect | IC50 (SK-MEL-5 [1]): 3.7 µM | IC50 (SK-MEL-28 [2]): 3.3 µM | IC50 (A-375 [3]): 1.98 µM | inhibition (INH) (SK-MEL-28 [14]): 100% | Activity (SK-MEL-28 [9]): Active | Activity (SK-MEL-28 [15]): Dose-dependent effect | inhibition (Tubulin (Homo sapiens)): Active

OC(COc1ccc(-c2ccccc2)cc1)CN1CCN(c2ccccn2)CC1 (racemic)
IC50 (SK-MEL-5 [1]): 21.2 µM | IC50 (SK-MEL-28 [2]): 25 µM | IC50 (A-375 [3]): 28.2 µM

COc1ccccc1N1CCN(CC(O)COc2cccc3[nH]c4ccccc4c23)CC1 (racemic)
IC50 (SK-MEL-5 [1]): 13.6 µM | IC50 (SK-MEL-28 [2]): 14.1 µM | IC50 (A-375 [3]): 13.9 µM
